Literature values, collected in US20240424165A1, “NEW COATING OF IMPLANTS” (Universität Münster, priority 2021, published 2024).
In brackets after ≈: the same amount, converted by molar mass.

Test system: S. aureus

## CO[C@H]1/C=C/O[C@@]2(C)Oc3c(C)c(O)c4c(O)c(c(/C=N/N5CCN(C)CC5)c(O)c4c3C2=O)NC(=O)/C(C)=C\C=C\[C@H](C)[C@H](O)[C@@H](C)[C@@H](O)[C@@H](C)[C@H](OC(C)=O)[C@@H]1C [rifampin]
  MIC: 0.06 µg/mL (≈ 0.0729 µM)
